Results published in patent US20190015421A1, “Biomarkers for Treating Cancer with Apilimod” (LAM Therapeutics, Inc., priority 2016, published 2019).

Tests used:
769-P = experiment: apilimod 5 day assay in clear cell RCC line 769-P; format: cell-based; conditions: Homo sapiens, 120 h, 769-P clear cell RCC line, VHL mutant, read-out: EC50 (nM) (avg, n = 2)
RCC-MF = experiment: apilimod 5 day assay in clear cell RCC line RCC-MF; format: cell-based; conditions: 120 h, read-out: EC50 (nM) (avg, n = 2)
RCC-ER = experiment: apilimod 5 day assay in clear cell RCC line RCC-ER; format: cell-based; conditions: 120 h, VHL mutant, read-out: EC50 (nM) (avg, n = 2)
From the text: FIG. 7B: example dose response of renal cell line RCC-ER and normal colon cell line CCD841CoN to apilimod in a 5 day assay.

RCC-FG2 = experiment: apilimod 5 day assay in clear cell RCC line RCC-FG2; format: cell-based; conditions: 120 h, VHL mutant, read-out: EC50 (nM) (avg, n = 2)
RCC-JF = experiment: apilimod 5 day assay in clear cell RCC line RCC-JF; format: cell-based; conditions: 120 h, VHL mutant, read-out: EC50 (nM) (avg, n = 2)
786-0 = experiment: apilimod 5 day assay in clear cell RCC line 786-0; format: cell-based; conditions: Homo sapiens, 120 h, 786-0 clear cell RCC line, VHL mutant, read-out: EC50 (nM) (avg, n = 2)
A-704 = experiment: apilimod 5 day assay in clear cell RCC line A-704; format: cell-based; conditions: Homo sapiens, A704, 120 h, A-704 clear cell RCC line, VHL mutant, read-out: EC50 (nM) (avg, n = 2)
RCC-JW = experiment: apilimod 5 day assay in clear cell RCC line RCC-JW; format: cell-based; conditions: 120 h, read-out: EC50 (nM) (avg, n = 2)
KMRC-1 = experiment: apilimod 5 day assay in clear cell RCC line KMRC-1; format: cell-based; conditions: 120 h, KMRC-1 clear cell RCC line, VHL mutant, read-out: EC50 (nM) (avg, n = 2)
KMRC-3 = experiment: apilimod 5 day assay in clear cell RCC line KMRC-3; format: cell-based; conditions: 120 h, KMRC-3 clear cell RCC line, VHL mutant, read-out: EC50 (nM) (avg, n = 2)
Caki-1 = experiment: apilimod 5 day assay in clear cell RCC line Caki-1; format: cell-based; conditions: Homo sapiens, 120 h, Caki-1 clear cell RCC line, VHL WT, read-out: EC50 (nM) (avg, n = 2)
ACHN = experiment: apilimod 5 day assay in clear cell RCC line ACHN; format: cell-based; conditions: Homo sapiens, 120 h, VHL WT, read-out: EC50 (nM) (avg, n = 2)
Caki-2 = experiment: apilimod 5 day assay in clear cell RCC line Caki-2; format: cell-based; conditions: Homo sapiens, 120 h, Caki-2 clear cell RCC line, VHL mutant, read-out: EC50 (nM) (avg, n = 2)
A498 = experiment: apilimod 5 day assay in clear cell RCC line A498; format: cell-based; conditions: Homo sapiens, 120 h, VHL mutant, read-out: EC50 (nM) (avg, n = 2)
[1] = system: CA46 (TFEB-deficient B-NHL); experiment: apilimod dose response in CA46 pools over-expressing GFP control or TFEB; format: cell-based; conditions: CA46 pools over-expressing TFEB vs GFP control, 10-point dose response, 72 hrs
Method: FIG. 6: stable CA46 (TFEB-deficient B-NHL) pools over-expressing either GFP control or TFEB were treated with 10-point apilimod dose response for 72 hrs.
To further explore the role of TFEB in the cellular response to apilimod, the expression levels of TFEB across different cancer cell lines from the Cancer Cell Line Encyclopedia (CCLE) database (Barretina et al., 2012) were extracted and examined to determine whether there was a correlation between TFEB expression and the sensitivity of the cell line to apilimod. […] To test whether the increased TFEB expression contributes to the apilimod sensitivity observed in B-NHL, we overexpressed TFEB in the TFEB-deficient B-NHL cell line CA46.

[2] = system: clear cell RCC cell lines (n=5); experiment: anti-proliferative activity versus standard of care drugs, 5 day assays; format: cell-based; conditions: versus axitinib, sorafenib, pazopanib, sunitinib and rapamycin
From the text: FIG. 8: anti-proliferative activity of apilimod versus standard of care drugs in clear cell RCC cell lines (n=5) in 5 day assays. *Values denote the geometric mean.

TFEB = TFEB phosphorylation status and subcellular localization by immunoblotting; format: cell-based; conditions: SU-DHL-6 cells, apilimod 63 nM, 2 hr
Method: FIG. 4: nuclear and cytoplasmic levels of TFEB protein assayed by immunoblotting in SU-DHL-6 cells treated with apilimod (63 nM) for 2 hr.
TFEB is a master regulator of lysosomal gene expression and is activated by dephosphorylation followed by nuclear translocation (Roczniak-Ferguson et al., 2012; Settembre et al., 2012). Accordingly, we next looked at TFEB phosphorylation status and subcellular localization following apilimod treatment.

SU-DHL-6 and SU-DHL-10 = experiment: LysoTracker staining of the acidified compartment; format: cell-based; conditions: 200 nM apilimod, 24 and 48 hrs, compared to DMSO
Method: FIG. 3: LysoTracker staining in SU-DHL-6 and SU-DHL-10 for 24 and 48 hrs after treatment with 200 nM (blue) apilimod compared to DMSO treated control (red).
(§1) To further understand apilimod's cellular mechanism of action, we performed a global gene expression analysis of the changes occurring after apilimod treatment of two non-Hodgkins B cell lymphoma (B-NHL) tumor cell lines, SU-DHL-10 and WSU-DLCL2. […] We next performed a gene ontology analysis. […] We next used LysoTracker staining to examine the acidified compartment of the cells.

[3] = system: SU-DHL-10 and WSU-DLCL2 B-NHL lines; experiment: global gene expression and gene ontology analysis; format: cell-based; conditions: SU-DHL-10 and WSU-DLCL2 after apilimod treatment
From the text: FIG. 1: heatmap representation of gene expression changes in SU-DHL-10 and WSU-DLCL2 B-NHL lines upon apilimod treatment.
as §1

[4] = system: RCC having a VHL mutation; experiment: apilimod cytotoxicity in RCC lines by VHL status; format: cell-based; conditions: clear cell RCC lines of Table 2, 5 day assay
TSC null cells = conditions: mTOR pathway constitutively active; previously shown; cited from earlier work
[5] = system: synovial IL-12 and IL-23 expression; conditions: patients with rheumatoid arthritis; Krauz et al. 2012; cited from earlier work
[6] = active Crohn's disease; Sands et al. 2010; cited from earlier work

## Cc1cccc(/C=N/Nc2cc(N3CCOCC3)nc(OCCc3ccccn3)n2)c1 [apilimod]
769-P
  EC50: 44 nM
RCC-MF
  EC50: 8 nM
RCC-ER
  EC50: 9 nM
RCC-FG2
  EC50: 32 nM
RCC-JF
  EC50: 60 nM
786-0
  EC50: 71 nM
A-704
  EC50: 11 nM
RCC-JW
  EC50: 27 nM
KMRC-1
  EC50: 4 nM
KMRC-3
  EC50: 39 nM
Caki-1
  EC50: 2280 nM
ACHN
  EC50: 9040 nM
Caki-2
  EC50: 3360 nM
A498
  EC50: 84000 nM
[1]
  enhancement of apilimod sensitivity by TFEB over-expression: greater than 50 fold
[2]
  activity against clear cell RCCs relative to standard of care treatments: superior activity
TFEB
  TFEB dephosphorylation and nuclear translocation: induces TFEB dephosphorylation and nuclear translocation
SU-DHL-6 and SU-DHL-10
  acidified compartment (LysoTracker staining): expansion of the acidified compartment
[3]
  gene ontology of genes induced by apilimod: clear enrichment of lysosomal genes
[4]
  cytotoxicity by VHL status: preferentially cytotoxic in RCC having a VHL mutation
TSC null cells
  cytotoxicity in TSC null cells: highly cytotoxic
[5]
  effect on synovial IL-12 and IL-23 expression: failed to alter synovial IL-12 and IL-23 expression
[6]
  efficacy over placebo: did not demonstrate efficacy over placebo
  tolerability: well tolerated
